Results: patent US8334272B2, “Methods for nucleic acid transfer into cells” (Northwestern University, priority 2007, dated 2012)
“Also recorded” adds a separate entry of the source.

How the values were obtained:
[1] = tested on: A549 cells; assay: Luciferase expression after electroporation of pCMV-Lux-DTS plasmid (transfection efficiency); type: cell-based, human; settings: for luciferase expression versus DMSO (vehicle) treated or wild type cells: A549, 3 hours after electroporation, 1 μM TSA, 3 mM 17b, 1 mM 17-AAG, 10 nM okadaic acid; for exogenous gene expression (luciferase) versus vehicle control: A549, 24 hours after electroporation and 25 hours after drug treatment; for exogenous gene expression as measured by luciferase expression over appropriate control (FIG. 4): A549 cell cultures
Procedure: Human adenocarcinoma A549 cells (ATCC, #CCL-185, Rockville, Md.) were grown in DMEM supplemented with 10% fetal bovine serum (FBS). A stable line of A549 cells expressing firefly luciferase was constructed by transfection of cells with plasmid pGL4.14[luc2/Hygro] (Promega, Madison, Wis.) and selection with hygromycin. Colonies were pooled and passaged under selection. HIF-1 and HIF-2 knockdowns were created in A549 cells using retroviral methods with the PT67 packaging cell line (Clontech, Mountain View, Calif.). PT67 cells were transfected with 10 to 15 μg of specific shRNA-expressing or empty plasmids using lipofectin (Invitrogen, Carlsbad, Calif.) according to the manufacturer's protocol. Virus-containing medium was supplemented with 8 μg/ml of polybrene (Sigma, St. Louis, Mo.) for infection. Stable HDAC6 knockdown or stable HDAC6 overexpressing A549 cells were a generous gift from T. P. Yao (Duke University). For electroporations, cells were grown to confluency in […] dishes, and rinsed twice in serum- and antibiotic-free media. Five micrograms of plasmids in 500 µl of serum and antibiotic-free DMEM were added to each well and one […] square wave electric pulse was applied using a PetriPulser electrode (BTX, San Diego, Calif.). […] Drugs were used at the following final concentrations: 1 μM TSA, 1 mM Sodium Butyrate, […], 3 mM 17B, 1 mM 17-AAG, and 10 nM Okadaic Acid. […] All luciferase measurements were normalized to total cell protein and reported as fold-increases in expression over DMSO (vehicle-treated). All experiments were performed in triplicate wells and the experiments were repeated at least three times. For statistical analyses, student's t-tests were used. Cells grown on etched coverslips were microinjected as previously described. At least 100 cells were injected for each condition and experiments were repeated three times.
Plasmid pCMV-lux-DTS expresses luciferase from the CMV immediate early promoter and contains the SV40 DNA nuclear targeting sequence downstream of the reporter gene. All plasmids were purified from E. coli using Qiagen Gigaprep kits as described by the manufacturer (Qiagen, Chatsworth, Calif.). Plasmid pDD306, expressing GFP from the CMV promoter and which contains the GeneGrip1 PNA binding site (Gene Therapy Systems, San Diego, Calif.) was labeled with Cy3-labeled PNA as described. Briefly, plasmids were labeled with Cy3-PNA in the manufacturer's labeling buffer at 37° C. for 2 hours followed by isopropanol precipitation to remove unbound Cy3-PNA. Plasmid labeling was verified by agarose gel electrophoresis and fluorescent detection in the absence of ethidium bromide.

[2] = tested on: acetylated tubulin; assay: Total and acetylated tubulin by immunofluorescence and Western blot; type: cell-based, human; parameters: level of microtubules (polymerized tubulin) / acetylated microtubules after treatment: dose or concentration left out as unconfirmed; settings: for microtubule (tubulin) acetylation: cell cultures, immunofluorescence, versus treatment controls
Procedure: Prior to collection, samples were washed once in PBS (37° C.), and stabilized in two 15 minute washes in microtubule stabilization buffer (0.1M PIPES, pH 6.75, 1 mM EGTA, 1 mM MgSO4, 2 M glycerol, protease inhibitors). Cells were then lysed in microtubule lysis buffer (25 mM Tris-HCl, pH 7.4, 0.4 M NaCl and 0.5% SDS). All extracted samples were mixed with SDS-PAGE sample buffer (112.5 mM Tris-HCl, pH 6.8, 10%-mercaptoethanol, 3.6% SDS, 1.8% glycerol, 0.001% bromophenol blue) such that equal amounts of total protein were loaded for each fraction. The samples were boiled for 3 min and separated by 12% SDS-PAGE gels according to the methods previously described by Lugtenberg. Proteins were transferred to nitrocellulose and probed using anti-acetylated (1:1000, Sigma) or anti-tubulin (1:1000, Sigma) in PBS with 5% fat-free powdered milk. Blots were developed with a chemiluminescence detection kit, and autoradiograms were digitized before densitometry using ImageJ (NIH, Bethesda, Md.). All samples were run in duplicate and were from at least three independent experiments. After all treatment regimes, cells were washed with PBS followed by a 10 minute incubation in fixation/permeabilization buffer (60 mM PIPES, 25 mM HEPES, 10 mM EGTA, 3 mM MgCl2, 0.2% Triton X-100, and 3.7% paraformaldehyde). Cells were then washed in PBS and blocked for 1 hour in PBS containing 1 mg/ml BSA. After blocking, the cells were incubated for 1 hour with the appropriate primary antibody in PBS with 0.1 mg/ml BSA, washed in PBS, and reacted for 30 minutes with Alexa 488 or 555 conjugated secondary antibody (1:200, Molecular Probes, Eugene, Oreg.) in PBS with 0.1% BSA. Following a second set of washes in PBS, the silastic membranes were excised from the culture plates, placed face up on a microscope slide, and covered with a coverslip. All images were acquired in OpenLab (Improvision, Lexington, Mass.) with a Hamamatsu Orca II-ER camera attached to Leica DRMX-2 upright fluorescent microscope using a 100× oil-immersion objective.

[3] = tested on: cytoplasmic HDACs (HDAC6); settings: A549 cytoplasmic extracts
Procedure: HDAC6 Activity measurements. Cytoplasmic lysates were prepared as previously described to separate HDAC6 from nuclear HDAC activity (36). Cells were then probed for HDAC activity using a fluorescent HDAC activity kit (BioMol International LP, Plymouth Meeting, Pa.). At various times during the development of the assay, the reagents were quenched, allowing for a determination of the relative activity of the cytoplasmic HDACs.

[4] = target: T1, HDAC6 (Homo sapiens, UniProt Q9UBN7); settings: sodium butyrate 1 mM, Trichostatin A 1 μM where stated; cited from earlier work
T1 sequence (Q9UBN7 1-1215): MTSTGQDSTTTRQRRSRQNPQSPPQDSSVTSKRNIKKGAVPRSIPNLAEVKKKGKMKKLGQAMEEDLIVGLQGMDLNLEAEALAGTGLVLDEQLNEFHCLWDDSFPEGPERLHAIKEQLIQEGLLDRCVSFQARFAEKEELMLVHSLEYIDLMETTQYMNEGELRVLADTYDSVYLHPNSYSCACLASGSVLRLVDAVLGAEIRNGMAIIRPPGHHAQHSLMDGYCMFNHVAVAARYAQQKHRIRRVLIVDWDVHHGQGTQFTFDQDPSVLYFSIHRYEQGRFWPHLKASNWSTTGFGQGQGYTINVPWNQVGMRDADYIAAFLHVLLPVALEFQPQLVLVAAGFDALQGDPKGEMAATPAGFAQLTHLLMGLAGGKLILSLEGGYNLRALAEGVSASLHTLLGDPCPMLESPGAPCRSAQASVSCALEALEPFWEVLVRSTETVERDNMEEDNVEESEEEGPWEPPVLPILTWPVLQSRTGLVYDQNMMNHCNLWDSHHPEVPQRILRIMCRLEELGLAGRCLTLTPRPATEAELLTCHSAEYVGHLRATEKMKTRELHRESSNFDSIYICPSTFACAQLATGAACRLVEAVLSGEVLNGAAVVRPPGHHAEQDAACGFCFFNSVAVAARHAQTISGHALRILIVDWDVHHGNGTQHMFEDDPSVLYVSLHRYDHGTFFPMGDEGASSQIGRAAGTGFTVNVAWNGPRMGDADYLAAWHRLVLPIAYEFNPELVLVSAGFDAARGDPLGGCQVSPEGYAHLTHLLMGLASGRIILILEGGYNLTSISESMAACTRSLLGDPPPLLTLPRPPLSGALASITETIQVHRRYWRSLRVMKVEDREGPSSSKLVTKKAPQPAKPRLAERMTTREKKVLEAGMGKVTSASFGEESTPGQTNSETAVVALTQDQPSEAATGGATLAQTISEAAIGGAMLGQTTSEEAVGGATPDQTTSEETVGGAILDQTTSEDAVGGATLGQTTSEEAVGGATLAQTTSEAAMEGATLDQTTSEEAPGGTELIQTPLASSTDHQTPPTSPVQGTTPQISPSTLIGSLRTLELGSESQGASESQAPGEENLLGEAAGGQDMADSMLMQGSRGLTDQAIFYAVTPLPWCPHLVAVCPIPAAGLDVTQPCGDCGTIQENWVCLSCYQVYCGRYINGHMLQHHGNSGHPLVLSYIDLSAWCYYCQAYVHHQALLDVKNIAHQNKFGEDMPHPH

Structure (SMILES) | luciferase expression versus DMSO (vehicle) treated or wild type cells [1] | exogenous gene expression (luciferase) versus vehicle control [1] | exogenous gene expression as measured by luciferase expression over appropriate control (FIG. 4) [1] | microtubule (tubulin) acetylation [2] | other results
C=CCNC1=C2C[C@@H](C)C[C@H](OC)[C@H](O)[C@@H](C)/C=C(\C)[C@H](OC(N)=O)[C@@H](OC)/C=C\C=C(/C)C(=O)NC(=CC1=O)C2=O [17-AAG] | no increase in expression; also recorded: dampened |  |  |  | 
CC(/C=C/C(=O)NO)=C\[C@@H](C)C(=O)c1ccc(N(C)C)cc1 [TSA, trichostatin A] | slight but significant increase | significant increases | increased | significant microtubule acetylation | higher increase in expression than sodium butyrate ([1]; A549, 24 hours after electroporation, 25 hours after drug): ~10 fold; microtubule (tubulin) acetylation ([2]; listed as trichostatin A): increased; cytoplasmic HDAC activity in the assay [3]: quenched
O=C(CCCCCCC(=O)Nc1ccc([C@H]2O[C@@H](CSc3nc(-c4ccccc4)c(-c4ccccc4)o3)C[C@@H](c3ccc(CO)cc3)O2)cc1)NO [Tubacin, tubacin] |  |  | increased |  | exogenous gene expression as measured by luciferase expression over appropriate control (FIG. 4) ([1]; listed as tubacin): greatly increased
COC(=O)Nc1nc2ccc(C(=O)c3cccs3)cc2[nH]1 [nocodazole] |  |  |  |  | acetylated microtubules after treatment ([2]; A549, Nocodazole, 3 hours): still remained; level of microtubules (polymerized tubulin) ([2]; A549, Nocodazole, 3 hours): greatly diminished
C=C1[C@@H](O)[C@@H]2O[C@]3(CC[C@H](/C=C/[C@@H](C)[C@@H]4CC(C)=C[C@@]5(O[C@H](C[C@@](C)(O)C(=O)O)CC[C@H]5O)O4)O3)CC[C@H]2O[C@@H]1[C@@H](O)C[C@H](C)[C@H]1O[C@@]2(CCCCO2)CC[C@H]1C [okadiac acid, Okadaic Acid] | did not result the increase in expression |  |  |  | 
CCCC(=O)[O-].[Na+] [sodium butyrate] |  | significant increases |  | not and not observed | HDAC inhibition selectivity [4]: does not inhibit HDAC6; also recorded: inhibits all HDACs except for HDAC6
